Like-named read-outs stand apart in the source and are kept apart here.
Key:
[1] = tested on: hepatocellular carcinoma HepG2 cell line; test: MTT cytotoxicity assay, HepG2; assay type: cell-based, human; details: mean ± SE
Experimental: (§1) All the newly synthesized analogs were evaluated for their in vitro cytotoxicity against the hepatocellular carcinoma HepG2 cell line. Podo was utilized as a reference control in the current study. […] The N-phenyl triazinone derivative 9 was further investigated for its cytotoxic effects against normal liver cell line HL-7702.
(§2) MTT colorimetric assay was carried out to investigate the impact of the newly synthesized compounds 2–11 on hepatocellular carcinoma (HepG2) and normal liver cell line (HL-7702) cell lines. See Section 3.3.1 in Supplementary Material.
(§3) 3.3.1. Cytotoxic activity evaluation
To measure the cytotoxic activity of the synthesized derivatives 2a-11 in hepatocel-lular carcinoma (HepG2) cell line (ATCC Cat No. HB-8065) as well as normal human liver cell line HL-7702 (ATCC Cat. No. 77402), cell viability assay was assessed using MTT assay method. Cells at density of 1 x 104 were seeded in a 96-well plate at 37 °C for 24 h under 5% CO2. After incubation, the cells were treated with different concentrations of the test compounds 2a-11 and incubated for 24 h, then 20 μl of MTT solution at 5 mg/mL was applied and incubated for 4 h at 37 °C. Dimethyl sulphoxide (DMSO) in volume of 100 µl was added to each well to dissolve the purple formazan that had formed. The color inten-sity of the formazan product, which represents the growth condition of the cells, is quan-tified by using an ELISA plate reader (EXL 800, USA) at 570 nm absorbance. The experi-mental conditions were carried out with at least three replicates, and the experiments were repeated at least three times.
3.3.2. Tubulin inhibitions Assay
(§4) Compounds 9, 10 and 11 were evaluated for their tubulin inhibitory activity levels according to the manufacturer’s instructions using # abcam Human Beta-tubulin simplestep […]
3.3.3. Cell cycle analysis of compound 9
Cell cycle analysis in HepG2 cells was investigated using fluorescent Annexin V-FITC/ PI detection kit (BioVision EZCellTM Cell Cycle Analysis Kit Catalog #K920) by flow cytometry assay. HepG2 cells at a density of 2 × 10^5 per well were harvested and washed twice in PBS. After that, the cells were incubated at 37 °C and 5% CO2. […] Afterward, medium was stained with DNA flu-orochrome PI for 15 min at 37 °C. The samples were immediately analyzed using Facs Calibur flow cytometer (Becton and Dickinson, Heidelberg, Germany).
3.3.4. Apoptosis assay for compound 9
Apoptosis in HepG2 cells was investigated using fluorescent Annexin V-FITC/ PI de-tection kit (BioVision Annexin V-FITC Apoptosis Detection Kit, Catalog #: K101) by flow cy-tometry assay. HepG2 cells at a density of 2 × 10^5 per well were treated with compound 9 at its IC50 (μM) for 48 h, then the cells were harvested and stained with Annexin V-FITC/ PI dye for 15 min in the dark at 37 °C. The samples were immediately analyzed using FACS Calibur flow cytometer (Becton and Dickinson, Heidelberg, Germany).
3.3.5. Measurement of mitochondrial membrane potential (MMP) for compound 9 MMP was measured by FACS analysis using abcam ab113852TMRE Mitochondrial Membrane Potential Assay Kit with DiOC2(3) staining using MitoProbe™ DiOC2(3) Assay Kit for Flow Cytometry (M34150). After treatment with compound 9 at its IC50 concentra-tion, cells were stained with DiOC2(3) dye for 30 min in the incubator, then harvested and washed with PBS. DiOC2(3)-stained cells were represented with Annexin binding buffer and incubated at 37 °C for 15 min. The samples were immediately analyzed using cell […]
3.3.6. Effect on p53, Bax and Bcl-2 p53, Bax and Bcl2 enzyme activities in HepG2 cells were detected in the presence of com-pound 9 at its IC50 concentration (μM). The levels of the tumor suppressor gene p53, apoptotic markers Bax as well as the anti-apoptotic marker Bcl-2 were assessed using p53 ELISA kit, Human Bax ELISA kit and Bcl-2 Elisa kit. […]

β-tubulin = test: Tubulin polymerization inhibition (beta-tubulin ELISA in HepG2 cells); assay type: cell-based, human
Experimental: The selected candidates were tested at a concentration equal to their IC50 concentration dose value. […] See Section 3.3.2 in Supplementary Material. […] page 18: 3.3. Biological studies 3.3.1. Cytotoxic activity evaluation To measure the cytotoxic activity of the synthesized derivatives 2a-11 in hepatocel- lular carcinoma (HepG2) cell line (ATCC Cat No. HB-8065) as well as normal human liver cell line HL-7702 (ATCC Cat. No. 77402), cell viability assay was assessed using MTT assay method. Cells at density of 1 x 104 were seeded in a 96-well plate at 37 °C for 24 h under 5% CO2. After incubation, the cells were treated with different concentrations of the test compounds 2a-11 and incubated for 24 h, then 20 μl of MTT solution at 5 mg/mL was […] Dimethyl sulphoxide (DMSO) in volume of 100 μl was added to each well to dissolve the purple formazan that had formed. The color […] of the formazan product, which represents the growth condition of the cells, is quan- […] by using an ELISA plate reader (EXL 800, USA) at 570 nm absorbance. The experi- mental conditions were carried out with at least three replicates, and the experiments were repeated at least three times. 3.3.2. Tubulin inhibitions Assay […] according to the manufacturer's instructions using # abcam Human Beta-tubulin […] ELISA Kit ab245722. 3.3.3. Cell cycle analysis of compound 9 Cell cycle analysis in HepG2 cells was investigated using fluorescent Annexin V- FITC/ PI detection kit (BioVision EZCellTM Cell Cycle Analysis Kit Catalog #K920) by flow cytometry assay. […] twice in PBS. After that, the cells were incubated at 37 °C and 5% CO2. […] Apoptosis assay for compound 9 Apoptosis in HepG2 cells was investigated using fluorescent Annexin V-FITC/ PI de- tection kit (BioVision Annexin V-FITC Apoptosis Detection Kit, Catalog #: K101) by flow cy- tometry assay. […] The samples were immediately analyzed using FACS Calibur flow cytometer (Becton and Dickinson, Heidelberg, Germany). 3.3.5. Measurement of mitochondrial membrane potential (MMP) for compound 9 MMP was measured by FACS analysis using abcam ab113852TMRE Mitochondrial Membrane Potential Assay Kit with DiOC2(3) staining using MitoProbeTM DiOC2(3) Assay Kit for Flow Cytometry (M34150). After treatment with compound 9 at its IC50 concentra- tion, cells were stained with DiOC2(3) dye for 30 min in the incubator, then harvested and washed with PBS. […] The samples were immediately analyzed using cell Quest software. […] Effect on p53, Bax and Bcl-2 p53, Bax and Bcl2 enzyme activities in HepG2 cells were detected in the presence of com- pound 9 at its IC50 concentration (μM). The levels of the tumor suppressor gene p53, apoptotic markers Bax as well as the anti-apoptotic marker Bcl-2 were assessed using p53 ELISA kit, Human Bax ELISA kit and Bcl-2 Elisa kit. […]

eight cancer cell lines = tested on: eight cancer cell lines; parameters: method as in PMID 23547728; details: read-out: average IC50 over eight cancer cell lines; cited from earlier work
MGC-803 cell line = tested on: MGC-803 cell line; parameters: method as in doi:10.1016/j.arabjc.2021.103644; details: read-out: IC50, antiproliferative activity; cited from earlier work
PC-3 cell line = tested on: PC-3 cell line; parameters: method as in doi:10.1016/j.arabjc.2021.103644; details: read-out: IC50, antiproliferative activity; cited from earlier work
EC-109 cell line = tested on: EC-109 cell line; parameters: method as in doi:10.1016/j.arabjc.2021.103644; details: read-out: IC50, antiproliferative activity; cited from earlier work
A-594 cell line = tested on: A-594 cell line; parameters: method as in doi:10.1016/j.arabjc.2021.103644; details: read-out: IC50, antiproliferative activity; cited from earlier work
HCT-116 cell line = tested on: HCT-116 cell line; parameters: method as in doi:10.1016/j.arabjc.2021.103644; details: read-out: IC50, antiproliferative activity; cited from earlier work
[2] = tested on: normal liver cell line HL-7702; test: MTT cytotoxicity assay, normal liver cells; assay type: cell-based; details: Homo sapiens, L02, 24 h treatment, mean ± SE
Experimental: as §1, §2, §3
To measure the cytotoxic activity of the synthesized derivatives 2a-11 in hepatocel-lular carcinoma (HepG2) cell line (ATCC Cat No. HB-8065) as well as normal human liver cell line HL-7702 (ATCC Cat. No. 77402), cell viability assay was assessed using MTT assay method. Cells at density of 1 x 104 were seeded in a 96-well plate at 37 °C for 24 h under 5% CO2. […] The color inten-sity of the formazan product, which represents the growth condition of the cells, is quan-tified by using an ELISA plate reader (EXL 800, USA) at 570 nm absorbance. […]
as §4
3.3.5. […] The samples were immediately analyzed using cell […]

[3] = Homo sapiens, HepG2, 24 h, 24 h treatment
[4] = HepG2 cells, each compound at its IC50 concentration (9 1.38, 10 2.52, 11 3.21, podo 2.08 μM), ELISA

COc1ccc(N2C(=O)/C(=C/c3cc(OC)c(OC)c(OC)c3)N=C2c2ccc(OC)c(OC)c2)cc1 [Compound 7b, (Z)-2-(3,4-Dimethoxyphenyl)-1-(4-Methoxyphenyl)-4-(3,4,5-Trimethoxybenzylidene)-1H-Imidazol-5(4H)-one]
melting point: 248 to 250 °C
IC50 ([1]; 24 h treatment): 6.45 ± 0.24 µM
IC50 [1, 3]: < 10 µM

COc1ccc(C2=N/C(=C\c3cc(OC)c(OC)c(OC)c3)C(=O)NN2C(=O)c2ccncc2)cc1OC [Compound 10, (Z)-3-(3,4-Dimethoxyphenyl)-2-Isonicotinoyl-5-(3,4,5-Trimethoxybenzylidene)-1,2-Dihydro-1,2,4-Triazin-6(5H)-one]
melting point: 248 to 250 °C
β-tubulin polymerization inhibition percentage (β-tubulin; [4]): 80.51%
IC50 [1, 3]: 2.52 ± 0.24 µM

COc1ccc(C2=N/C(=C\c3cc(OC)c(OC)c(OC)c3)C(=O)NN2c2nc(-c3ccccc3)cs2)cc1OC [Compound 11, (Z)-3-(3,4-Dimethoxyphenyl)-2-(4-Phenylthiazol-2-yl)-5-(3,4,5-Trimethoxybenzylidene)-1,2-Dihydro-1,2,4-Triazin-6(5H)-one]
melting point: 248 to 250 °C
β-tubulin polymerization inhibition percentage (β-tubulin; [4]): 69.95%
IC50 [1, 3]: 3.21 ± 0.22 µM

COc1cc(C(=O)c2nc(-c3ccccc3)c[nH]2)cc(OC)c1OC [RABI-112]
IC50 (eight cancer cell lines): 14 nM

COc1cc(Nc2nc(Cc3ccc(C(=O)/C=C/c4ccccn4)cc3)nnc2Cl)cc(OC)c1OC [V]
IC50 (MGC-803 cell line): 410 nM
IC50 (PC-3 cell line): 610 nM
IC50 (EC-109 cell line): 780 nM
IC50 (A-594 cell line): 520 nM
IC50 (HCT-116 cell line): 430 nM

COc1cc([C@@H]2c3cc4c(cc3[C@H](O)[C@H]3COC(=O)[C@H]23)OCO4)cc(OC)c1OC [podo, podophyllotoxin, reference compound]
β-tubulin polymerization inhibition percentage (β-tubulin): 91.32%
IC50 ([1]; Homo sapiens, HepG2, 24 h treatment): 2.08 ± 0.04 µM
IC50 [2]: 18.6 ± 0.58 µM

Source: PMC9322052, “Synthesis and Biological Activity Screening of Newly Synthesized Trimethoxyphenyl-Based Analogues as Potential Anticancer Agents” (Molecules, 2022)
